From US11413348B2, “Low molecular weight cationic lipids for oligonucleotide delivery” (SIRNA THERAPEUTICS, INC., priority 2010, dated 2022)

Tests used:
ApoE = target: T1, ApoE (Macaca mulatta, UniProt Q28502); assay: In vitro ApoE binding assay (anti-PEG capture, ApoE ELISA, stem-loop RT-PCR); conditions: LNP 4 ug/mL in 90% rhesus serum, 37° C., 20 minutes; estimate of 500 siRNA per LNP
T1 construct: from tissue; host or cells: rhesus serum
Method: LNPs are incubated at 37° C. in 90% rhesus serum at a final LNP concentration of 4 ug/mL. Incubation is for 20 minutes with orbital rotation. After incubation, the samples are diluted 1:20 in PBS and 100 uL of each diluted sample is aliquoted to wells of an anti-PEG antibody coated 96-well plate (Life Diagnostics Cat. No. P-0001PL. After incubation at room temperature for 1 hour, the plate is washed 5× with 300 uL PBS. After washing, 50 uL of 0.2% Triton X-100 is added to each well and the plate incubated at 37° C. for 10 minutes, followed by shaking on a plate shaker for 1 minute at 750 rpm. Samples are frozen prior to performing the ApoE ELISA and stem loop PCR analysis of samples.
An ApoE ELISA assay is performed to quantitate ApoE bound to the LNPs after incubation in rhesus serum. Anti-ApoE antibody (Milipore, Cat No. AB947) is diluted 1:1000 in PBS and 100 uL of diluted antibody is added to each well of a polystyrene high binding plate. The plate with antibody is incubated overnight at 4° C., after which the plate is washed 2× with 200 uL of PBS. Next, 200 uL of buffer containing 1% BSA and 0.05% Tween-20 in PBS (Incubation Buffer) is added to each well followed by incubation at room temperature for 1 hour. Plates are washed 5× with PBS containing 0.05% Tween-20. Frozen Triton lysis test samples are thawed and diluted 1:6 with incubation buffer and 100 uL of test sample is aliquoted to wells of the ApoE antibody plate. Incubation is for 1 hour at room temperature followed by a 5× wash with PBS containing 0.05% Tween-20. After washing, 100 uL of biotinylated anti-ApoE antibody (Mabtech, Cat. ANo. E887-biotin), diluted 1:500 in incubation buffer, is added to each well and incubated for 1 hour at room temperature, followed by a 5× wash with 0.05% Tween-20 in PBS. 100 uL per well, of Streptavidin-HPR (Thermo, Cat. No. TS-125-HR), is then added and incubated for 1 hour at room temperature. After washing 5× with 0.05% Tween-20 in PBS, 100 uL of TMB Substrate (Thermo, Cat. No. 34028) is added to each well, followed by incubation at room temperature for 20 minutes in the dark. The calorimetric reaction is slopped with 100 uL of TMB Stop Solution (KPL, Cat. No. 50-85-04) and absorbance at 450 nm is determined. An ApoE standard curve is prepared by diluting rhesus Recombinant ApoE in incubation buffer with 0.03% Triton X-100 with concentrations ranging from 100 ng/mL to 0.78 ng/mL. ApoE standards are evaluated in the ELISA in parallel to the test samples. A rhesus serum only (no LNP) control is utilized to obtain a background subtraction for non-LNP dependent ApoE signal in the ELISA.
To normalize to the ApoE bound to the amount of LNP bound to the anti-PEG antibody plate, the amount of siRNA retained in the anti-PEG antibody well is quantitated by stem-loop PCR and related to the number of siRNAs encapsulated per LNP, to give an approximate measure of total LNP particles bound per well.
The standard curve is prepared using the molecular weight of the siRNA (13693 g/mol for ApoB 17063) to calculate the copy number. The high standard should contain 10^11 copies per 3 μl. A 10-fold serial dilution is performed across a row of an assay plate until the lowest standard contains 10^2 copies per 3 μl. Dilute 0.2% Triton X-100 1:80 in water and pipette 20 uL of the diluted Triton X-100 into 10 wells of a 96 well plate. 30 uL of the serial diluted standard curve and mix are added to each well of the plate. 10 uL of the spiked standard curve is used in the reverse transcription reaction.
Triton lysates from the PEG antibody plate capture are diluted 1 to 2000 in nuclease free water. 10 uL of ‘RT-Primer Mix’ (Applied Biosystem's TaqMan MicroRNA Reverse Transcription Kit Cat. No. 4366596) is added to each well of a 96-well Micro-Amp QPCR plate (ABI Cat #N801-0560).
[…] of each test sample (diluted 1 to 2000) or spiked standard curve (above) are aliquoted into the 96-well plate. […]

serum ApoE = target: T2, serum ApoE (Macaca mulatta, UniProt Q28502); assay: Heparin Sepharose HI-TRAP binding assay; design: species or system rhesus monkey; conditions: HI-TRAP binding upon rhesus serum incubation, 2×DPBS conditions
T2 construct: from tissue; host or cells: rhesus monkey serum
Method: Lipid nanoparticles (LNP) with neutral surface charge are not retained after injection onto heparin sepharose with 1× Dulbecco's phosphate buffered saline (DPBS) as the running buffer but elute in the column void volume. […] Lipid nanoparticles with surface bound ApoE bind to heparin sepharose with high affinity and are eluted only at high salt (1M NaCl).
Lipid nanoparticles were incubated at 37° C. for 20 min at a final siRNA concentration of 50 μg/mL with various concentrations of either purified or recombinant human apolipoprotein E or 0.1-50% rat/mouse/rhesus monkey/human serum in 1× Dulbccco's phosphate buffered saline (DPBS). After incubation with ApoE or serum LNP samples were diluted 10-fold using 1×DPBS and analyzed by heparin sepharose chromatography. Peak area of retained LNP (after subtraction of appropriate blank signals) is compared to total peak area of LNP control without ApoE and/or serum incubation to determine the percentage of the LNP which undergoes shift to high affinity heparin interaction after incubation with ApoE/serum.
A heparin sepharose HI-TRAP™ chromatography column (GE Healthcare; 1 mL bed volume) is equilibrated with either 1× or 2× Dulbecco's PBS; the higher 2× salt concentration is used for LNPs with higher intrinsic retention on heparin sepharose (presumably due to higher positive surface charge). • Mobile Phase A: 1× or 2×DPBS • Mobile Phase B: 1M NaCl in 10 mM sodium phosphate buffer, pH 7.0 • 100% A delivered isocratically for 10 min followed by step gradient to 100% B; hold for additional 10 min; step gradient back to 100% A and reequilibrate for additional 10 min prior to injection of next sample • Flow rate: 1 mL/min • Sample injection volume: 50 μL. • Detection: UV @260 nm HI-TRAP™ Binding Results Upon Rhesus Serum Incubation (2×DPBS Conditions)

T1 sequence (Q28502 19-295): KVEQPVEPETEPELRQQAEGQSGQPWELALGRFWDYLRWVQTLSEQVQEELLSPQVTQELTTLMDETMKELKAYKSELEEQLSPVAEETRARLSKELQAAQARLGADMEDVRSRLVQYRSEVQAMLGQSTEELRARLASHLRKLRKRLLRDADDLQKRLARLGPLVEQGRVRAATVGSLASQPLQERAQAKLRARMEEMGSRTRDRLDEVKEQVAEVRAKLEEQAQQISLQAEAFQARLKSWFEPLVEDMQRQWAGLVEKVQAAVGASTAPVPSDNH
T2 sequence (Q28502 19-295): as above

Compound | ApoE Molecules/LNP (ApoE) [Molecules/LNP] | % Bound (serum ApoE) [%]
CCCCCCCCCC(CCCCCCCC1CC1CCCCCCCC)N(C)C [Compound 33, N,N-dimethyl-1-[(1S,2R)-2-octylcyclopropyl]hepladecan-8-amine] | 18.1 | <5
CCCCC/C=C\C/C=C\CCCCCCCCCC(CCCCCCCCC)CCN(C)C (stereo not shown) [Compound 32, (13Z,16Z)—N,N-dimethyl-3-nonyldocosa-13,16-dien-1-amine] | 12.8 | 100
